Assay results published in patent US8143394B2, “Pyrido(3,2-d)pyrimidines useful for treating viral infections” (Gilead Sciences, Inc., priority 2006, dated 2012).

Legend:
[1] = CC50 assay (CellTiter-Glo) in Huh-7 HCV replicon cells; type: cell-based, human; details: human, 50% cytostatic concentration
Description: (§1) The anti-HCV activity of the pyrido[3,2-d]pyrimidine derivatives of this invention was tested in a human hepatoma Huh-7 cell line harbouring a HCV replicon. The assay comprised the following steps:
(§2) Step 1: Compound Preparation and Serial Dilution
(§3) • 1. for water soluble pyrido[3,2-d]pyrimidine derivatives, a volume of 500 μL of solution in cell media (DMEM, 10% FBS, P/S, L-Glutamine) was prepared with a concentration being twice the concentration of the starting final serial dilution concentration. A volume of 150 μL of the solution was added to the pre-specified wells in column 1 of a 96-well cell culture plate (PerkinElmer, white plate, cat. #6005181, for EC50 assay; black plate, cat. #6005182 for CC50 assay). The rest of the plate, columns 2-12, was filled with 100 μL of cell media. The plate was then placed on a Precision 2000 Workstation to start the serial dilution. Compounds were diluted three times each step from column 1 to column 10. Column 11 was used as a blank control (no compound added). • 2. for pyrido[3,2-d]pyrimidine derivatives requiring DMSO to dissolve, serial dilution is performed in 50% DMSO in a 384-well plate. A solution containing a compound at 100-fold concentration of the starting final serial dilution concentration was prepared in 50% DMSO and added to the pre-specified wells in column 1 of a polypropylene 384-well plate. The plate was then placed on a Precision 2000 Workstation to start the serial dilution. After the serial dilution, a volume of 2 μL of the solution was transferred from the 384-well plate to a 96-well cell culture plate containing 100 μL of cell media on a Biomek FX Workstation. The DMSO concentration in the final assay condition was 0.5% after cells are added to the plate and the total volume in each well is brought to 200 μL. Step 2: to each well of the serial dilution plate prepared above, 100 μL of cell media containing 6000 suspended Huh-7 HCV replicon cells was added with a Multidrop workstation. The plates were incubated for 3 days at 37° C. with 5% CO2. Step 3: Detection: • a) for the EC50 assay, the media in a 96-well cell culture plate was aspirated with a Biotek EL405 plate-washer. A volume of 200 μL of a solution containing a 1:1 mixture of cell-lysis buffer (Promega, Luciferase Cell Culture Lysis 5X Reagent, cat. #E1531) and luciferase substrate solution (Promega, Luciferase Assay, cat. # E4550) was added to each well of the plate with Multidrop. The plate was incubated for 30 minutes at room temperature before the luminescence signal was measured with a TopCount plate-reader. • b) for the CC50 assay, a volume of 100 μL of pre-mixed CellTiter-Glo (Promega, cat. # G7572) solution is added directly to the cell culture in each well of the plate and the luminescence signal is measured with a TopCount plate-reader after 10 minutes of incubation at room temperature.
(§4) Results in table 13 are expressed by the following data: • the 50% effective concentration (EC50), i.e. the concentration that protects 50% of the cell monolayer from virus-induced cythopathic effect, and • the 50% cytostatic concentration (CC50), i.e. the concentration that results in 50% inhibition of cell growth.

[2] = test system: HCV replicon; experiment: Anti-HCV replicon assay (EC50, luciferase readout); type: cell-based; details: Hepatitis C virus, 72 h; human hepatoma Huh-7 cell line harbouring a HCV replicon; 3 days; luciferase; read-out: EC50
Description: as §1, §2, §3, §4

| Compound | CC50 at 3 days [1] [nM] | EC50 [2] [nM] |
| --- | --- | --- |
| CCOc1nc(N)nc2ccc(-c3ccc(C(=O)NC4CC4)c(Cl)c3)nc12 [Example 62, 4-(2-Amino-4-ethoxy-pyrido[3,2-d]pyrimidin-6-yl)-2-chloro-N-cyclopropyl-benzamide] | > 20000 | > 1000 |
| COCCNc1nc(N)nc2ccc(-c3ccc(NC(=O)OC)cc3)nc12 [Example 10, {4-[2-Amino-4-(2-methoxy-ethylamino)-pyrido[3,2-d]pyrimidin-6-yl]-phenyl}-carbamic acid methyl ester] | > 20000 | 300 to 1000 |
| CCOc1nc(N)nc2ccc(-c3ccc(NS(=O)(=O)CC)cc3)nc12 [Example 55, ethanesulfonic acid [4-(2-amino-4-ethoxy-pyrido[3,2-d]pyrimidin-6-yl)-phenyl]-amide] | > 20000 | > 1000 |
| CCOc1nc(N)nc2ccc(-c3ccc(C(=O)NCCN(C)C)cc3)nc12 [Example 63, 4-(2-Amino-4-ethoxy-pyrido[3,2-d]pyrimidin-6-yl)-N-(2-dimethylamino-ethyl)-benzamide] | 10000 to 20000 | < 300 |
| CNC(=O)c1ccc(-c2ccc3nc(N)nc(OC(C)C)c3n2)cc1Cl [Example 71, 4-(2-Amino-4-isopropoxy-pyrido[3,2-d]pyrimidin-6-yl)-2-chloro-N-methyl-benzamide] | > 20000 | > 1000 |
| CCOc1nc(N)nc2ccc(-c3cccc(NS(=O)(=O)c4c(C)noc4C)c3)nc12 [Example 50, 3,5-Dimethyl-isoxazole-4-sulfonic acid [3-(2-amino-4-ethoxy-pyrido[3,2-d]pyrimidin-6-yl)-phenyl]-amide] | > 20000 | 300 to 1000 |
| CCOc1nc(N)nc2ccc(-c3ccc(NC(=O)C4(N)CC4)cc3)nc12 [Example 36, 1-Amino-cyclopropanecarboxylic acid [4-(2-amino-4-ethoxy-pyrido[3,2-d]pyrimidin-6-yl)-phenyl]-amide] | > 20000 | < 300 |
| CCOc1nc(N)nc2ccc(-c3cccc(NS(=O)(=O)CC(F)(F)F)c3)nc12 [Example 35, 2,2,2-Trifluoro-ethanesulfonic acid [3-(2-amino-4-ethoxy-pyrido[3,2-d]pyrimidin-6-yl)-phenyl]-amide] | > 20000 | 300 to 1000 |
| CCOc1nc(N)nc2ccc(-c3ccc(-c4nnc(C)o4)cc3)nc12 [Example 85, 4-Ethoxy-6-[4-(5-methyl-[1,3,4]oxadiazol-2-yl)-phenyl]-pyrido[3,2-d]pyrimidin-2-ylamine] | > 20000 | > 1000 |
| CCOc1nc(N)nc2ccc(-c3ccc(NC(=O)[C@@H](N)CO)cc3)nc12 [Example 41, 2-Amino-N-[4-(2-amino-4-ethoxy-pyrido[3,2-d]pyrimidin-6-yl)-phenyl]-3-hydroxy-propionamide] | > 20000 | < 300 |
| CCC(=O)Nc1ccc(-c2ccc3nc(N)nc(NCCS(C)(=O)=O)c3n2)cc1 [Example 4, N-{4-[2-Amino-4-(2-methanesulfonyl-ethylamino)-pyrido[3,2-d]pyrimidin-6-yl]-phenyl}-propionamide] | > 20000 | > 1000 |
| CC(C)C(=O)Nc1ccc(-c2ccc3nc(N)nc(OCCF)c3n2)cc1 [Example 21, N-{4-[2-amino-4-(2-fluoro-ethoxy)-pyrido[3,2-d]pyrimidin-6-yl]-phenyl}-isobutyramide] | > 20000 | 300 to 1000 |
| CCCCNC(=O)c1ccc(-c2ccc3nc(N)nc(OCC)c3n2)cc1 [Example 57, 4-(2-Amino-4-ethoxy-pyrido[3,2-d]pyrimidin-6-yl)-N-butyl-benzamide] | > 20000 | 300 to 1000 |
| COCCOc1nc(N)nc2ccc(-c3ccc(C(=O)NC4CC4)cc3)nc12 [Example 20, 4-[2-Amino-4-(2-methoxy-ethoxy)-pyrido[3,2-d]pyrimidin-6-yl]-N-cyclopropyl-benzamide] | > 20000 | < 300 |
| CCOc1nc(N)nc2ccc(-c3ncc(N)s3)nc12 [Example 47, 6-(5-amino-thiazol-2-yl)-4-ethoxy-pyrido[3,2-d]pyrimidin-2-ylamine] | 10000 to 20000 | < 300 |
| CC(C)Oc1nc(N)nc2ccc(-c3ccc(C(=O)NC4CCCC4)cc3)nc12 [Example 68, 4-(2-Amino-4-isopropoxy-pyrido[3,2-d]pyrimidin-6-yl)-N-cyclopentyl-benzamide] | > 20000 | 300 to 1000 |
| CCOc1nc(N)nc2ccc(-c3ccc(C(=O)NC4CC4)s3)nc12 [Example 89, 2-amino-4-ethoxy-6-(2-(N-(cyclopropyl)carbamoyl)-5-thiophenyl)pyrido[3,2-d]pyrimidine] | > 20000 | < 300 |
| CCOc1nc(N)nc2ccc(-c3ccc(NC(=O)C4(O)CC4)cc3)nc12 [Example 33, 1-Hydroxy-cyclopropanecarboxylic acid [4-(2-amino-4-ethoxy-pyrido[3,2-d]pyrimidin-6-yl)-phenyl]-amide] | > 20000 | < 300 |
| CC(C)Oc1nc(N)nc2ccc(-c3ccc(C(=O)NC4CCCCC4)cc3)nc12 [Example 65, 4-(2-Amino-4-isopropoxy-pyrido[3,2-d]pyrimidin-6-yl)-N-cyclohexyl-benzamide] | > 20000 | > 1000 |
| CCOc1nc(N)nc2ccc(-c3ccc(C(=O)NCC(C)C)cc3)nc12 [Example 56, 4-(2-Amino-4-ethoxy-pyrido[3,2-d]pyrimidin-6-yl)-N-isobutyl-benzamide] | > 20000 | 300 to 1000 |
| CS(=O)(=O)CCNc1nc(N)nc2ccc(-c3cccc(NS(=O)(=O)C4CC4)c3)nc12 [Example 2, Cyclopropanesulfonic acid {3-[2-amino-4-(2-methanesulfonyl-ethylamino)-pyrido[3,2-d]pyrimidin-6-yl]-phenyl}-amide] | > 20000 | 300 to 1000 |
| CN1CCCC1CCNC(=O)c1ccc(-c2ccc3nc(N)nc(O[C@H]4CCOC4)c3n2)cc1 (some centres unmarked) [Example 78, 4-[2-Amino-4-(tetrahydro-furan-3-yloxy)-pyrido[3,2-d]pyrimidin-6-yl]-N-[2-(1-methyl-pyrrolidin-2-yl)-ethyl]-benzamide] | > 20000 | > 1000 |
| CCC(=O)Nc1ccc(-c2ccc3nc(N)nc(N4CCS(=O)(=O)CC4)c3n2)cc1 [Example 12, N-{4-[2-Amino-4-(1,1-dioxo-1λ^6-thiomorpholin-4-yl)-pyrido[3,2-d]pyrimidin-6-yl]-phenyl}-propionamide] | < 10000 | < 300 |
| CCOc1nc(N)nc2ccc(-c3ccc(Nc4nccs4)cc3)nc12 [Example 31] | 10000 to 20000 | 300 to 1000 |
| CONC(=O)c1ccc(-c2ccc3nc(N)nc(OC(C)C)c3n2)cc1 [Example 70, 4-[2-Amino-4-isopropoxy-pyrido[3,2-d]pyrimidin-6-yl]-N-methoxy-benzamide] | > 20000 | < 300 |
| COC(=O)Nc1ccc(-c2ccc3nc(N)nc(N4CCS(=O)(=O)CC4)c3n2)cc1 [Example 13, {4-[2-Amino-4-(1,1-dioxo-1λ^6-thiomorpholin-4-yl)-pyrido[3,2-d]pyrimidin-6-yl]-phenyl}-carbamic acid methyl ester] | > 20000 | < 300 |
| CS(=O)(=O)Nc1cccc(-c2ccc3nc(N)nc(O[C@@H]4CCOC4)c3n2)c1 [Example 26, N-{3-[2-Amino-4-(tetrahydro-furan-3-yloxy)-pyrido[3,2-d]pyrimidin-6-yl]-phenyl}-methanesulfonamide] | > 20000 | < 300 |
| CC(C)C(=O)Nc1ccc(-c2ccc3nc(N)nc(NCCS(C)(=O)=O)c3n2)cc1 [Example 5, N-{4-[2-Amino-4-(2-methanesulfonyl-ethylamino)-pyrido[3,2-d]pyrimidin-6-yl]-phenyl}-isobutyramide] | > 20000 | < 300 |
